Results published in patent US20240124417A1, “COMPOUNDS USEFUL AS IMMUNOMODULATORS” (Bristol-Myers Squibb Company, priority 2019, published 2024).
pIC50: −log10 of the molar value.

molecular target: T1, PD-1/PD-L1 (Homo sapiens, UniProt Q9NZQ7); assay: PD-1/PD-L1 Homogenous Time-Resolved Fluorescence (HTRF) binding assay; conditions: PD-L1-His 10 nM, PD-1-Ig 20 nM
T1 construct: TVMV protease site linker (C); made in house; host or cells: HEK293T cells
Summary of the method: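 Inhibitors pre-incubated 15 min with PD-L1-His extracellular domain (10 nM final) in dPBS with 0.1% BSA and 0.05% Tween-20, then PD-1-Ig (20 nM final) added for a further 15 min. Read-out by HTRF with europium cryptate anti-Ig (1 nM) and APC anti-His (20 nM). Related pairs: PD-1-Ig/PD-L2-His (20/5 nM), CD80-His/PD-L1-Ig (100/10 nM).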

T1 sequence (Q9NZQ7 18-239): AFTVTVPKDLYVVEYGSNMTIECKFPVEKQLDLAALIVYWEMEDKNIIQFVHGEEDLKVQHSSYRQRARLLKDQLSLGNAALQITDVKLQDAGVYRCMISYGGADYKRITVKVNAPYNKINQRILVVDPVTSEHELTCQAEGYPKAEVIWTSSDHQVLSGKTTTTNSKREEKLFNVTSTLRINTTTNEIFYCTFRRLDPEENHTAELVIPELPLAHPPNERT

In order of falling pIC50:
1. Cc1c(COc2cc(OCc3cncc(C#N)c3)c(CNCc3csc(N)n3)cc2Cl)cccc1-c1cccc(OCC2CCCN(C)C2)c1Cl (stereo not drawn) [Example 2586, 5-((2-((((2-aminothiazol-4-yl)methyl)amino)methyl)-4-chloro-5-((2′-chloro-2-methyl-3′-((1-methylpiperidin-3-yl)methoxy)-[1,1′-biphenyl]-3-yl)methoxy)phenoxy)methyl)nicotinonitrile]  9.15
2. Cc1c(COc2cc(OCc3cncc(C#N)c3)c(CNCc3cccnc3)cc2Cl)cccc1-c1cccc(OCCCN2CC[C@@H](O)C2)c1C [Example 2018, (R)-5-((4-chloro-5-((3′-(3-(3-hydroxypyrrolidin-1-yl)propoxy)-2,2′-dimethyl-[1,1′-biphenyl]-3-yl)methoxy)-2-(((pyridin-3-ylmethyl)amino)methyl)phenoxy)methyl)nicotinonitrile]  9.10
3. Cc1c(COc2cc(OCc3cncc(C#N)c3)c(CNCc3cc4ccccn4n3)cc2Cl)cccc1-c1cccc(OCC2CCCN(C)C2)c1Cl (stereo not drawn) [Example 2602, 5-((4-chloro-5-((2′-chloro-2-methyl-3′-((1-methylpiperidin-3-yl)methoxy)-[1,1′-biphenyl]-3-yl)methoxy)-2-(((pyrazolo[1,5-a]pyridin-2-ylmethyl)amino)methyl)phenoxy)methyl)nicotinonitrile]  8.80
4. Cc1n[nH]c(C)c1CNCc1cc(Cl)c(OCc2cccc(-c3cccc(OCC4CCCN(C)C4)c3Cl)c2C)cc1OCc1cncc(C#N)c1 (stereo not drawn) [Example 2599, 5-((4-chloro-5-((2′-chloro-2-methyl-3′-((1-methylpiperidin-3-yl)methoxy)-[1,1′-biphenyl]-3-yl)methoxy)-2-((((3,5-dimethyl-1H-pyrazol-4-yl)methyl)amino)methyl)phenoxy)methyl)nicotinonitrile]  8.77
5. Cc1c(COc2cc(OCc3cnccn3)c(CNCc3c[nH]cn3)cc2Cl)cccc1-c1cccc(OCC2CCCN(C)C2)c1Cl (stereo not drawn) [Example 2060, N-((1H-imidazol-4-yl)methyl)-1-(5-chloro-4-((2′-chloro-2-methyl-3′-((1-methylpiperidin-3-yl)methoxy)-[1,1′-biphenyl]-3-yl)methoxy)-2-(pyrazin-2-ylmethoxy)phenyl)methanamine]  8.72
6. Cc1c(COc2cc(OCc3cncc(C#N)c3)c(CNCCc3nc4cc(Cl)ccc4[nH]3)cc2Cl)cccc1-c1cccc(OCC2CCCN(C)C2)c1Cl (stereo not drawn) [Example 2613, 5-((4-chloro-2-(((2-(5-chloro-1H-benzo[d]imidazol-2-yl)ethyl)amino)methyl)-5-((2′-chloro-2-methyl-3′-((1-methylpiperidin-3-yl)methoxy)-[1,1′-biphenyl]-3-yl)methoxy)phenoxy)methyl)nicotinonitrile]  8.66
7. CC(=O)NC1CCN(CCCOc2cccc(-c3cccc(COc4cc(OCc5cncc(C#N)c5)c(CN(C)CCc5nn[nH]n5)cc4Cl)c3C)c2C)CC1 [Example 1037, N-(1-(3-((3′-((4-(((2-(2H-Tetrazol-5-yl)ethyl)(methyl)amino)methyl)-2-chloro-5-((5-cyanopyridin-3-yl)methoxy)phenoxy)methyl)-2,2′-dimethyl-[1,1′-biphenyl]-3-yl)oxy)-propyl)piperidin-4-yl)acetamide]  8.55
8. CC(=O)NC1CCN(CCCOc2cccc(-c3cccc(COc4cc(OCc5cncc(C#N)c5)c(CN5CCCCC5c5cnn(C)c5)cc4Cl)c3C)c2C)CC1 (stereo not drawn) [Example 1054, N-(1-(3-((3′-((2-Chloro-5-((5-cyanopyridin-3-yl)methoxy)-4-((2-(1-methyl-1H-pyrazol-4-yl)piperidin-1-yl)methyl)phenoxy)methyl)-2,2′-dimethyl-[1,1′-biphenyl]-3-yl)oxy)-propyl)piperidin-4-yl)acetamide]  8.52
9. Cc1c(COc2cc(OCc3cncc(C#N)c3)c(CN(C)CCc3nc4ccccc4n3C)cc2Cl)cccc1-c1cccc(OCCCN2CC[C@@H](O)C2)c1C [Example 2510, (R)-5-((4-chloro-5-((3′-(3-(3-hydroxypyrrolidin-1-yl)propoxy)-2,2′-dimethyl-[1,1′-biphenyl]-3-yl)methoxy)-2-((methyl(2-(1-methyl-1H-benzo[d]imidazol-2-yl)ethyl)amino)methyl)phenoxy)methyl)nicotinonitrile]  8.48
10. Cc1c(COc2cc(OCc3cncc(C#N)c3)c(CN(C)Cc3cncs3)cc2Cl)cccc1-c1cccc(OCCCN2CC[C@@H](O)C2)c1C [Example 2534, (R)-5-((4-chloro-5-((3′-(3-(3-hydroxypyrrolidin-1-yl)propoxy)-2,2′-dimethyl-[1,1′-biphenyl]-3-yl)methoxy)-2-((methyl(thiazol-5-ylmethyl)amino)methyl)phenoxy)methyl)nicotinonitrile]  8.47
11. CC(=O)NC1CCN(CCCOc2cccc(-c3cccc(COc4cc(OCc5cncc(C#N)c5)c(CN5CCCC(c6ncc[nH]6)C5)cc4Cl)c3C)c2C)CC1 (stereo not drawn) [Example 1038, N-(1-(3-((3′-((4-((3-(1H-Imidazol-2-yl)piperidin-1-yl)methyl)-2-chloro-5-((5-cyano-pyridin-3-yl)methoxy)phenoxy)methyl)-2,2′-dimethyl-[1,1′-biphenyl]-3-yl)oxy)propyl)-piperidin-4-yl)acetamide]  8.43
12. Cc1c(COc2cc(OCc3cncc(C#N)c3)c(CN3CCc4[nH]cnc4C3)cc2Cl)cccc1-c1cccc(OCCCN2CC[C@@H](O)C2)c1C [Example 2515, (R)-5-((4-chloro-5-((3′-(3-(3-hydroxypyrrolidin-1-yl)propoxy)-2,2′-dimethyl-[1,1′-biphenyl]-3-yl)methoxy)-2-((1,4,6,7-tetrahydro-5H-imidazo[4,5-c]pyridin-5-yl)methyl)phenoxy)methyl)nicotinonitrile]  8.42
13. Cc1c(COc2cc(OCc3cncc(C#N)c3)c(CN(C)Cc3ccncc3)cc2Cl)cccc1-c1cccc(OCCCN2CC[C@@H](O)C2)c1C [Example 2029, (R)-5-((4-chloro-5-((3′-(3-(3-hydroxypyrrolidin-1-yl)propoxy)-2,2′-dimethyl-[1,1′-biphenyl]-3-yl)methoxy)-2-((methyl(pyridin-4-ylmethyl)amino)methyl)phenoxy)methyl)nicotinonitrile]  8.39
14. Cc1c(COc2cc(OCc3cncc(C#N)c3)c(CN(C)CCc3cc[nH]n3)cc2Cl)cccc1-c1cccc(OCCCN2CC[C@@H](O)C2)c1C [Example 2518, (R)-5-((2-(((2-(1H-pyrazol-3-yl)ethyl)(methyl)amino)methyl)-4-chloro-5-((3′-(3-(3-hydroxypyrrolidin-1-yl)propoxy)-2,2′-dimethyl-[1,1′-biphenyl]-3-yl)methoxy)phenoxy)methyl)nicotinonitrile]  8.36
15. Cc1c(COc2cc(OCc3cccnn3)c(CNCc3cn[nH]c3)cc2Cl)cccc1-c1cccc(OCC2CCCN(C)C2)c1Cl (stereo not drawn) [Example 2054, N-((1H-pyrazol-4-yl)methyl)-1-(5-chloro-4-((2′-chloro-2-methyl-3′-((1-methylpiperidin-3-yl)methoxy)-[1,1′-biphenyl]-3-yl)methoxy)-2-(pyridazin-3-ylmethoxy)phenyl)methanamine]  8.25
16. Cc1c(COc2cc(OCc3cncc(C#N)c3)c(CNCc3c[nH]cn3)cc2Cl)cccc1-c1cccc(OCCCN2CC[C@@H](O)C2)c1C [Example 2003, (R)-5-((2-((((1H-imidazol-4-yl)methyl)amino)methyl)-4-chloro-5-((3′-(3-(3-hydroxypyrrolidin-1-yl)propoxy)-2,2′-dimethyl-[1,1′-biphenyl]-3-yl)methoxy)phenoxy)methyl)nicotinonitrile]  8.14
17. Cc1nc2c(s1)CN(Cc1cc(Cl)c(OCc3cccc(-c4cccc(OCC5CCCN(C)C5)c4Cl)c3C)cc1OCc1cncc(C#N)c1)CC2 (stereo not drawn) [Example 2600, 5-((4-chloro-5-((2′-chloro-2-methyl-3′-((1-methylpiperidin-3-yl)methoxy)-[1,1′-biphenyl]-3-yl)methoxy)-2-((2-methyl-6,7-dihydrothiazolo[5,4-c]pyridin-5(4H)-yl)methyl)phenoxy)methyl)nicotinonitrile]  8.14
18. Cc1onc(-c2ccccc2)c1CNCc1cc(Cl)c(OCc2cccc(-c3cccc(OCCCN4CC[C@@H](O)C4)c3C)c2C)cc1OCc1cncc(C#N)c1 [Example 2522, (R)-5-((4-chloro-5-((3′-(3-(3-hydroxypyrrolidin-1-yl)propoxy)-2,2′-dimethyl-[1,1′-biphenyl]-3-yl)methoxy)-2-((((5-methyl-3-phenylisoxazol-4-yl)methyl)amino)methyl)phenoxy)methyl)nicotinonitrile]  7.63
19. Cc1c(COc2cc(OCc3cncc(C#N)c3)c(CNCc3nc4ccccc4n3Cc3ccccc3)cc2Cl)cccc1-c1cccc(OCCCN2CC[C@@H](O)C2)c1C [Example 2557, (R)-5-((2-((((1-benzyl-1H-benzo[d]imidazol-2-yl)methyl)amino)methyl)-4-chloro-5-((3′-(3-(3-hydroxypyrrolidin-1-yl)propoxy)-2,2′-dimethyl-[1,1′-biphenyl]-3-yl)methoxy)phenoxy)methyl)nicotinonitrile]  7.13
20. Cc1c(COc2cc(OCc3cncc(C#N)c3)c(CNCc3cn[nH]n3)cc2Cl)cccc1-c1cccc(OCC2CCCN(CCC(F)(F)F)C2)c1Cl (stereo not drawn) [Example 2068, 5-((2-((((2H-1,2,3-triazol-4-yl)methyl)amino)methyl)-4-chloro-5-((2′-chloro-2-methyl-3′-((1-(3,3,3-trifluoropropyl)piperidin-3-yl)methoxy)-[1,1′-biphenyl]-3-yl)methoxy)phenoxy)methyl)nicotinonitrile]  7.05
21. Cc1onc(-c2ccccc2)c1CN(C)Cc1cc(Cl)c(OCc2cccc(-c3cccc(OCCCN4CC[C@@H](O)C4)c3C)c2C)cc1OCc1cncc(C#N)c1 [Example 2523, (R)-5-((4-chloro-5-((3′-(3-(3-hydroxypyrrolidin-1-yl)propoxy)-2,2′-dimethyl-[1,1′-biphenyl]-3-yl)methoxy)-2-((methyl((5-methyl-3-phenylisoxazol-4-yl)methyl)amino)methyl)phenoxy)methyl)nicotinonitrile]  6.75
